Consider one compound from PMC5302928, “[^64Cu]XYIMSR-06: A dual-motif CAIX ligand for PET imaging of clear cell renal cell carcinoma” (Oncotarget, 2016).

The subject of this data set is CAIX-expressing SK-RC-52 ccRCC tumor xenografts. Nature of the data set: Biodistribution of [Al18F]XYIMSR-04 in mice bearing SK-RC-52 xenografts. Particulars: 1 h. It is filed as in vivo. The method, then:
The resulting Mice bearing SK-RC-52 xenografts within the solution was heated at 110 °C for 30 min. 0.6 mg of lower left flank were injected intravenously with 740 [Al19F]XYIMSR-04 was obtained as white crystal, after kBq (20 μCi) of [Al18F]XYIMSR-04 in 200 μL of PBS.
HPLC purification. Yield is 61 %. HPLC condition: At specific 1 hour time point mentioned in the paper, column Phenomenex, Luna 10 x 250 mm, 10 µ. 20/80/ mice (n = 5) were sacrificed by cervical dislocation and TFA MeCN/H O/TFA, flow 4 mL/min. Product was the blood was immediately collected by cardiac puncture. […]
eluded at 35.5 min. MS, calculated for C H AlFN N Heart, lungs, pancreas, spleen, fat, brain, muscle, small […]
aO S [M+Na] : 1426.4759; Found: 1426.4777. intestines, liver, bone, stomach, kidney, urinary bladder, […]
and tumor were collected. Each organ was weighed and Radiosynthesis the tissue radioactivity was measured with an automated gamma counter (1282 Compugamma CS, Pharmacia/
For convenience, Na18F in saline purchased from LKBNuclear, Inc., Mt. Waverly, Vic. Australia). The PETNET (Hackensack, NJ) was directly applied with to percentage of injected dose per gram of tissue (% ID/g) the synthesis with a slightly modified protocol (2). Due to was calculated by comparison with samples of a standard […]
reaction condition. corrected for radioactive decay.
Radiosynthesis of [Al18F]XYIMSR-04. 400μg of Data were expressed as mean ± standard deviation XYIMSR-04 in 200 μL water/Ethanol 1:1 was added to (SD). Prism software (GraphPAD, San Diego, California) 1 mL of Na18F in 0.9% saline containing 4.6-14.0 mCi was used to determine statistical significance. Statistical activity. To this mixture, 20 μL of 2 mM AlCl3/NaOAc significance was calculated using a paired t test. P-values solution and 200 μL of ethanol were added. The reaction < 0.0001 were considered significant. was kept at 105 °C for 20 min, then diluted to 2.0 mL The biodistribution data at 1 h is shown below. with water and loaded onto a preparative HPLC column The tumor uptake is 14.40%ID/g, with tumor-to –blood, for purification. Retention times for the radiolabeled -muscle and –kidney of 22.1, 9.74 and 0.28. compound, [Al18F]XYIMSR-04, and starting material, XYIMSR-04, were optimized to the point of baseline Imaging separation, with [Al18F]XYIMSR-04 eluting first.
[Al18F]XYIMSR-04 was obtained a radiochemical yield Mice harboring subcutaneous SK-RC-52 tumors of 4.3% (n=3) in specific radioactivity of 57-92 Ci/mmol with the lower left flank were injected with 7.4 MBq (200 in 1 hour. HPLC conditions: Phenomenex, Luna 10 x 250 μCi) of [Al18F]XYIMSR-04 in 250 µL of PBS (pH = 7.0) mm, 10μ. 20/80/0.1 MeCN/H2O/TFA, flow 4 mL/min. intravenously (tail vein). Anesthesia was then induced Product eluted at 35.5 min, while starting material eluted with 3% isofluorane and maintained at 2% isoflurane. […]
(also on this page, place not known: www.impactjournals.com/oncotarget/ Oncotarget, Supplementary Materials 2016 ([Al19F]XYIMSR-04). AlCl 3 2O/TFA, 57H79AlFN15N aO20S2 +: Na 18F [Al 18F]XYIMSR-04. XYIMSR-04 Na 18F AlCl 3/NaOAc [Al 18F]XYIMSR-04, [Al 18F]XYIMSR-04 MeCN/H 2O/TFA, [Al 19F]XYIMSR-04 [Al 18F]XYIMSR-04) […]

Values joined by “and” are separate entries in the source; they are usually repeats but may differ in a detail not shown here. Equal values may be shown once.

With `CC(CCC(=O)N[C@@H](CC(=O)N[C@@H](CC(=O)N[C@@H](CCCCn1cc(CCCC(=O)Nc2nnc(S(N)(=O)=O)s2)nn1)C(=O)NCCOCCOCCNC(=O)CN1CCN2CCN(CC1)CC(=O)[O][Al]([18F])[O]C(=O)C2)C(=O)O)C(=O)O)(c1ccc(O)cc1)c1ccc(O)cc1` [[Al^18F]XYIMSR-04], the Bladder uptake amounted to 20.12 ± 12.51 %ID/g, the Blood uptake is listed as 0.65 ± 0.11 %ID/g, the Bone uptake came out at 1.91 ± 1.39 %ID/g and the Brain uptake was found to be 0.66 ± 0.04 %ID/g. Besides, the Fat uptake is reported as 1.54 ± 0.25 %ID/g, the Heart uptake turned out to be 5.03 ± 0.51 %ID/g, the “Kidney (kid) uptake” value worked out at 50.84 ± 2.65 %ID/g and the Liver uptake amounted to 5.55 ± 0.91 %ID/g. Further, the Lung uptake is 34.07 ± 5.85 %ID/g, the “Muscle (mm) uptake” value worked out at 1.74 ± 0.58 %ID/g, the Pancreas uptake was 3.47 ± 0.16 %ID/g and the Sm. intestine uptake is reported as 9.59 ± 1.04 %ID/g. Further, the Spleen uptake turned out to be 0.54 ± 0.18 %ID/g, the Stomach uptake is given as 21.62 ± 1.85 %ID/g, the Tumor uptake is reported as 14.4 ± 2.2 %ID/g and the “Tumor/kid (kidney) ratio” value is on record as 0.28 ± 0.03. Moreover, the “Tumor/mm (muscle) ratio” value was found to be 9.7 ± 2.9. For the same compound, for the setting “listed as [Al18F]XYIMSR-04”, the Tumor/Blood ratio was 22.1 and 22.1 ± 1.5; the “Tumor/kid (kidney) ratio” value worked out at 0.28; the “Tumor/mm (muscle) ratio” value is recorded as 9.74.
